Data reported in patent US20170226507A1, “COORDINATE CONTROL OF PATHOGENIC SIGNALING BY THE MIR-130/301 FAMILY IN PULMONARY HYPERTENSION AND FIBROPROLIFERATIVE DISEASES” (The Brigham and Women's Hospital, Inc., priority 2014, published 2017).

Tests used:
STAT3 = STAT3 phosphorylation in PASMCs (conditioned media from PAECs or endothelin-1; immunoblot); format: cell-based, human; settings: conditioned media from transfected PAECs (mimic: normoxic, tiny-LNA: hypoxic conditioning)
Procedure: (FIG. 40A) A schematic diagram of co-culture experiments: conditioned media from transfected PAECs (miRNA, anti-miRNA, tiny-LNA or siRNA under normoxic or hypoxic conditions) were filtered and applied onto naïve PASMCs cultured in matrigel. At specific times, PASMCs or PASMC-matrigel cultures were arrested and analyzed for STAT3 activation (phosphorylation) or contraction, respectively.
50000 PASMC were embedded in 100 ul of matrix gel as previous described (Gagiolli et al) and plated into well of a 96 well plate. After 1 h at 37° C., these matrices were overlaid with 100 ul of conditioned PAECs serum-free medium (transfected with siRNA, miRNA or anti-miRNA and supplemented with Ambriesentan 10 uM). Every 12 h, medium was changed and at day 4 the gels were photographed and the relative diameter of the well and the gel were measured using ImageJ. The percentage contraction was calculated using the formula 100*(well diameter−gel diamter)/well diameter. For the co-culture experiment, conditioned media from PAEC transfected as indicated were applied on PASMCs or Fibroblast previously starved (24 h). Cells were collected at different time and analyzed by western blotting.
Cells were lysed in RIPA buffer (Santa Cruz Biotechnology) and the protein concentration determined using a Bradford assay (Biorad). Protein lysate ([…]) were resolved by SDS-PAGE and transferred onto a PVDF membrane (Biorad). Membranes were blocked in 5% non-fat milk in TN buffer (50 mM Tris-HCl pH 7.4, 150 mM NaCl) and incubated in the presence of the primary and then secondary antibodies. After washing in TN buffer containing 0.1% Tween, immunoreactive bands were visualized with the ECL system (Amersham Biosciences). […] Primary antibodies for STAT3 (#9139) and P-STAT3 (Tyr-705; #9145) were purchased from Cell Signaling. Primary antibodies against actin (ab 3280), was obtained from Abcam. Appropriate secondary antibodies (anti-rabbit and anti-mouse) coupled to HRP were used (Santa Cruz Biotechnology).

PAAFs = assay: ECM remodeling experiment (naïve PAAFs plated on remodeled ECM); format: cell-based, human
Procedure: After the different treatment cells were fixed with PBS/PFA 4% for 10 min and permeabilized with PBS/Triton 100×0.1% for 10 min. Then cells were incubated with anti-YAP1 (#4912; 1/100; Cell signaling) at 4° C. overnight. Secondary antibodies coupled with Alexa-594 (Life Technologies) were used at 1:500. Nuclei were counterstained with DAPI (Sigma).
Following treatment, PAAFs were plated atop soft matrices (see below) in normal growth medium supplemented with 0.5% FBS. After three days, 10 ug/mL of puromycin was added to the growth medium for 48 hours to detach the cells from the matrix. Matrices were washed 3 times (PBS). Naïve PAAFs were then plated on top of these matrices supplemented with normal growth medium 0.5% FBS or harvested for assessment of collagen crosslinking (Picrosirius Red stain). Sixteen hours later, cells were harvested for immunofluorescence experiments or RNA extraction.
Picrosirius Red stain was achieved through the use of 5 μm paraffin sections stained with 0.1% Picrosirius Red (Direct Red80, Sigma-Aldrich) and counterstained with Weigert's hematoxylin to reveal fibrillar collagen. The sections were then serially imaged using with an analyzer and polarizer oriented parallel and orthogonal to each other. Microscope conditions (lamp brightness, condenser opening, objective, zoom, exposure time, and gain parameters) were constant throughout the imaging of all samples. A minimal threshold was set on appropriate control sections for each experiment in which only the light passing through the orthogonally-oriented polarizers representing fibrous structures (i.e., excluding residual light from the black background) was included. The threshold was maintained for all images across all conditions within each experiment. The area of the transferred regions that was covered by the thresholded light was calculated and at least 10 sections/vessel per condition were averaged together (Image J software).

Substance: tiny-LNA-130: fully LNA-modified tiny LNA oligonucleotide 5′-ATTGCACT-3′ (SEQ ID NO: 3) complementary to the seed region of the miR-130/301 family (all LNA, backbone and methylation of C not given here)
- STAT3 phosphorylation in PASMCs (STAT3): abrogated
- collagen crosslinking of remodeled ECM (PAAFs; Picrosirius Red): reversed
- collagen, LOX, CTGF, and POU5F1/OCT4 in naïve cells plated on remodeled ECM (PAAFs; RT-qPCR): down-regulated
- miR-130/301 in naïve cells plated on remodeled ECM (PAAFs; RT-qPCR): down-regulated
